# Counter-ions that a name gives are not always drawn.
row,Compound,melting point
1,"CCN1CCN(c2nc(-c3ccc(OCC(O)CO)cc3)cc3ccccc23)CC1 (stereo not drawn) (as salt: hydrochloride) [Example 337, 1-(4-ethylpiperazin-1-yl)-3-[4-(2,3-dihydroxypropoxy)phenyl]isoquinoline dihydrochloride]",133 to 135 °C (dec.)
2,"CCN1CCN(c2nc(-c3ccc(OC(F)(F)F)cc3)cc3ccccc23)CC1 (as salt: hydrochloride) [Example 339, 1-(4-ethylpiperazin-1-yl)-3-(4-trifluoromethoxyphenyl)isoquinoline dihydrochloride]",113 to 115 °C
3,"CCN1CCN(c2nc(-c3ccc(S(C)(=O)=O)cc3)cc3ccccc23)CC1 (as salt: hydrochloride) [Example 342, 1-(4-ethylpiperazin-1-yl)-3-(4-methylsulfonylphenyl)isoquinoline dihydrochloride]",216.5 to 218 °C (dec.)
4,"CCN1CCN(c2nc(-c3ccc(OCC(O)COC)cc3)cc3ccccc23)CC1 (stereo not drawn) (as salt: hydrochloride) [Example 343, 1-(4-ethylpiperazin-1-yl)-3-[4-(2-hydroxy-3-methoxypropoxy)phenyl]isoquinoline dihydrochloride]",216.5 to 218 °C (dec.)
5,"CCN1CCN(c2nc(-c3ccc(S(=O)(=O)NCCO)cc3)cc3ccccc23)CC1 (as salt: hydrochloride) [Example 347, 1-(4-ethylpiperazin-1-yl)-3-{4-[N-(2-hydroxyethyl)sulfamoyl]phenyl}isoquinoline dihydrochloride]",136 to 138.5 °C
6,"CCN1CCN(c2nc(-c3ccc(C(C)O)cc3)cc3ccccc23)CC1 (stereo not drawn) (as salt: hydrochloride) [Example 348, 1-(4-ethylpiperazin-1-yl)-3-[4-(1-hydroxyethyl)phenyl]isoquinoline dihydrochloride]",135.5 to 136 °C
7,"CCCS(=O)(=O)c1ccc(-c2cc3ccccc3c(N3CCN(CC)CC3)n2)cc1 (as salt: hydrochloride) [Example 349, 1-(4-ethylpiperazin-1-yl)-3-[4-propylsulfonyl)phenyl]isoquinoline dihydrochloride]",240.5 to 242 °C (dec.)
8,"CCN1CCN(c2nc(-c3ccc(S(=O)(=O)CCCOC)cc3)cc3ccccc23)CC1 (as salt: hydrochloride) [Example 350, 1-(4-ethylpiperazin-1-yl)-3-{4-[(3-methoxypropyl)sulfonyl]phenyl}isoquinoline]",177.5 to 180 °C
9,"CCN1CCN(c2nc(-c3ccc(CCO)cc3)cc3ccccc23)CC1 (as salt: hydrochloride) [Example 351, 1-(4-ethylpiperazin-1-yl)-3-[4-(2-hydroxyethyl)phenyl]isoquinoline dihydrochloride]",134 to 136 °C
10,"CCCNS(=O)(=O)c1ccc(-c2cc3ccccc3c(N3CCN(CC)CC3)n2)cc1 (as salt: hydrochloride) [Example 353, 1-(4-ethylpiperazin-1-yl)-3-[4-(N-propylsulfamoyl)phenyl]isoquinoline dihydrochloride]",226.5 to 227.5 °C (dec.)
11,"CCN1CCN(c2nc(-c3ccc(S(=O)(=O)CCCF)cc3)cc3ccccc23)CC1 (as salt: hydrochloride) [Example 355, 1-(4-ethylpiperazin-1-yl)-3-[4-(3-fluoropropyl)sulfonylphenyl]isoquinoline dihydrochloride]",224 to 225 °C (dec.)
12,"CCNS(=O)(=O)c1ccc(-c2cc3ccccc3c(N3CCN(CC)CC3)n2)cc1 (as salt: hydrochloride) [Example 357, 1-(4-ethylpiperazin-1-yl)-3-[4-(N-ethylsulfamoyl)phenyl]isoquinoline dihydrochloride]",147 to 149 °C
13,"CCN1CCN(c2nc(-c3ccc(S(=O)(=O)N(CC)CC)cc3)cc3ccccc23)CC1 (as salt: hydrochloride) [Example 359, 1-(4-ethylpiperazin-1-yl)-3-[4-(N,N-diethylsulfamoyl)phenyl]isoquinoline dihydrochloride]",210 to 212 °C (dec.)
14,"CCC(C)NS(=O)(=O)c1ccc(-c2cc3ccccc3c(N3CCN(CC)CC3)n2)cc1 (stereo not drawn) (as salt: hydrochloride) [Example 360, 1-(4-ethylpiperazin-1-yl)-3-{4-[N-(1-methylpropyl)sulfamoyl]phenyl}isoquinoline dihydrochloride]",155 to 156 °C
15,"CCN1CCN(c2nc(-c3ccc(S(=O)(=O)NC)cc3)cc3ccccc23)CC1 (as salt: hydrochloride) [Example 361, 1-(4-ethylpiperazin-1-yl)-3-[4-(N-methylsulfamoyl)phenyl]isoquinoline dihydrochloride]",170 to 172 °C
16,"CCN1CCN(c2nc(-c3ccc(S(=O)(=O)NC4CC4)cc3)cc3ccccc23)CC1 (as salt: hydrochloride) [Example 363, 1-(4-ethylpiperazin-1-yl)-3-[4-(N-cyclopropylsulfamoyl)phenyl]isoquinoline dihydrochloride]",158 to 159.5 °C
17,"CCNC(=O)c1ccc(-c2cc3ccccc3c(N3CCN(CC)CC3)n2)cc1 (as salt: hydrochloride) [Example 364, 1-(4-ethylpiperazin-1-yl)-3-[4-(N-ethylcarbamoyl)phenyl]isoquinoline dihydrochloride]",160 to 160.5 °C
18,"CCN1CCN(c2nc(-c3ccc(S(=O)(=O)CC)cc3)cc3ccccc23)CC1 (as salt: hydrochloride) [Example 366, 1-(4-ethylpiperazin-1-yl)-3-[4-(ethylsulfonyl)phenyl]isoquinoline dihydrochloride]",150 to 151.5 °C
19,"CCN1CCN(c2nc(-c3cc(F)c(OCCO)c(F)c3)cc3ccccc23)CC1 (as salt: hydrochloride) [Example 370, 1-(4-ethylpiperazin-1-yl)-3-[3,5-difluoro-4-(2-hydroxyethoxy)phenyl]isoquinoline]",112.5 to 114 °C
20,"CCN1CCN(c2nc(-c3cc(F)c(OCCF)c(F)c3)cc3ccccc23)CC1 (as salt: hydrochloride) [Example 371, 1-(4-ethylpiperazin-1-yl)-3-[3,5-difluoro-4-(2-fluoroethoxy)phenyl]isoquinoline dihydrochloride]",105 to 105.5 °C
21,"CCN1CCN(c2nc(-c3ccc(CC(C)=O)cc3)cc3ccccc23)CC1 (as salt: hydrochloride) [Example 375, 1-(4-ethylpiperazin-1-yl)-3-[4-(2-oxopropyl)phenyl]isoquinoline dihydrochloride]",125 to 126 °C

# More lines, now with the values ahead:
row,melting point,Compound
1,128 to 129 °C,"CCN1CCN(c2nc(-c3ccc(OCCO)c(OC)c3)cc3ccccc23)CC1 (as salt: hydrochloride) [Example 340, 1-(4-ethylpiperazin-1-yl)-3-[4-(2-hydroxyethoxy)-3-methoxyphenyl]isoquinoline dihydrochloride]"
2,215 to 218 °C (dec.),"CCN1CCN(c2nc(-c3ccc(SC)cc3)cc3ccccc23)CC1 (as salt: hydrochloride) [Example 341, 1-(4-ethylpiperazin-1-yl)-3-(4-methylthiophenyl)isoquinoline dihdyrochloride]"
3,154 to 155 °C,"CCN1CCN(c2nc(-c3ccc(C(=O)NCCO)cc3)cc3ccccc23)CC1 (as salt: hydrochloride) [Example 346, 1-(4-ethylpiperazin-1-yl)-3-{4-(N-(2-hydroxyethyl)carbamoyl]phenyl}isoquinoline dihydrochloride]"
4,213 to 215 °C (dec.),"CCN1CCN(c2nc(-c3ccc(S(=O)(=O)CCCO)cc3)cc3ccccc23)CC1 (as salt: hydrochloride) [Example 352, 1-(4-ethylpiperazin-1-yl)-3-[4-(3-hydroxypropyl)sulfonylphenyl]isoquinoline dihydrochloride]"
5,222 to 224 °C (dec.),"CCN1CCN(c2nc(-c3ccc(S(=O)(=O)NCCOC)cc3)cc3ccccc23)CC1 (as salt: hydrochloride) [Example 354, 1-(4-ethylpiperazin-1-yl)-3-{4-[N-(2-methoxyethyl)sulfamoyl]phenyl}isoquinoline dihydrochloride]"
6,238.5 to 240 °C (dec.),"CCN1CCN(c2nc(-c3ccc(S(=O)(=O)N4CCCC4)cc3)cc3ccccc23)CC1 (as salt: hydrochloride) [Example 356, 1-(4-ethylpiperazin-1-yl)-3-[4-(pyrrolidin-1-yl)sulfonylphenyl]isoquinoline dihydrochloride]"
7,199.5 to 200.5 °C (dec.),"CCCN(C)S(=O)(=O)c1ccc(-c2cc3ccccc3c(N3CCN(CC)CC3)n2)cc1 (as salt: hydrochloride) [Example 358, 1-(4-ethylpiperazin-1-yl)-3-[4-(N-methyl-N-propylsulfamoyl)phenyl]isoquinoline dihydrochloride]"
8,155 to 156 °C,"CCN1CCN(c2nc(-c3ccc(S(=O)(=O)N(C)C)cc3)cc3ccccc23)CC1 (as salt: hydrochloride) [Example 362, 1-(4-ethylpiperazin-1-yl)-3-[4-(N,N-dimethylsulfamoyl)phenyl]isoquinoline dihydrochloride]"
9,161.5 to 163 °C,"CCN1CCN(c2nc(-c3ccc(C(=O)NC)cc3)cc3ccccc23)CC1 (as salt: hydrochloride) [Example 365, 1-(4-ethylpiperazin-1-yl)-3-[4-(N-methylcarbamoyl)phenyl]isoquinoline dihydrochloride]"
10,112.5 to 114 °C,"CCN1CCN(c2nc(-c3ccc(OCCOC)c(F)c3)cc3ccccc23)CC1 (as salt: hydrochloride) [Example 367, 1-(4-ethylpiperazin-1-yl)-3-(3-fluoro-4-methoxyethoxyphenyl)isoquinoline dihydrochloride]"
11,110 to 112 °C,"CCN1CCN(c2nc(-c3cc(F)c(OCCOC)c(F)c3)cc3ccccc23)CC1 (as salt: hydrochloride) [Example 368, 1-(4-ethylpiperazin-1-yl)-3-(3,5-difluoro-4-methoxyethoxyphenyl)isoquinoline dihydrochloride]"
12,119 to 120 °C,"CCN1CCN(c2nc(-c3ccc(OCCO)c(F)c3)cc3ccccc23)CC1 (as salt: hydrochloride) [Example 369, 1-(4-ethylpiperazin-1-yl)-3-[3-fluoro-4-(2-hydroxyethoxy)phenyl]isoquinoline dihydrochloride]"
